According to patent publication US20230263915A1, “RADIOLABELED COMPOUNDS” (King's College London, priority 2020, published 2023):
Each block holds one compound with its values, some of them ahead of it.

How the values were obtained:
[1] = tested on: left ventricle function; assay: Echocardiography (cardiac ultrasound) in Doxorubicin minipump rats; type: in vivo
Description: In order to assess cardiac function all rats were subjected to a cardiac ultrasound (Vevo 770™, VisualSonics) one day prior to osmotic pump implantation and a second ultrasound one day prior to PET/CT imaging. Rats were anaesthetized with 2% isoflurane in 100% oxygen and maintained at 37° C. via a homoeothermic platform and rectal thermometer. High-resolution parasternal left ventricle (LV) long axis M-mode and B-mode images were obtained using a RMV710B transducer. Images were analysed offline using Vevo Software to determine LV function.
(§1) Male Wistar rats (280-300 g) were used in all experiments. Subcutaneous 7-day osmotic pumps (Alzet), containing either Doxorubicin (Cambridge Bioscience, 30 mg/kg cumulative dose) or vehicle (sterile 0.9% NaCl), were inserted into rats under 2% isoflurane in 100% oxygen.

[2] = Stability in rat serum at 37° C. determined by radioHPLC; type: in vitro ADME; settings: 1 hour
Description: (§2) Stability tests monitored by HPLC indicate that ^18F-FM074 is stable in both pure ethanol and 1% ethanol in PBS in the presence of ascorbic acid (0.01 mg/mL) for 4 h (not tested for longer). When incubated in rat serum at 37° C., 90% of ^18F-FM074 was intact in 1 hour (FIG. 3(A)). The stability of ^18F-FM108 in PBS was also determined and it was stable in 30 minutes (FIG. 3(B)).

[3] = Stability tests monitored by HPLC in ethanol / PBS; type: physicochemical
Description: as §2

[4] = tested on: xanthine oxidase/xanthine system; assay: Oxidation by superoxide generated by the xanthine oxidase/xanthine system; type: biochemical; settings: xanthine (1 mM) and catalase in PBS, 37° C., 5 min
[5] = Chemoselectivity study: oxidation by superoxide (KO2), radioHPLC; settings: for oxidation by superoxide: 1 mg/mL KO2 in solution, 5 min, room temperature; for oxidation by superoxide in the presence of ascorbic acid: KO2 plus ascorbic acid 1 mg/mL
Description: (§3) The different oxidants were prepared in PBS (900 μL). The ^18F-labelled compound was formulated as 0.5-2 MBq in 100 μL ethanol and added to the oxidant PBS solution. The final reaction mixture contains the ^18F-labelled compound (0.5-2 MBq) in the presence of 100 μM oxidant in PBS with 10% ethanol (final volume 1000 μL). The reaction was kept at room temperature for 5 min, after which it was injected into the HPLC for analysis. • Superoxide (O2^−): The ^18F-labelled compound in ethanol (100 μL) was added to PBS (900 μL) and the resulting solution was then added to a vial containing solid KO2 (1 mg), to make up a reaction mixture with 10 mM O2^−. • Hydrogen peroxide (H202): H2O2 (10 mM stock solution, 10 μL) was diluted in PBS (890 μL) followed by addition of the ^18F-labelled compound in ethanol (100 μL), to a final concentration of 100 μM. • Hydroxyl radical (⋅OH): hydroxyl radicals were generated in situ by reacting hydrogen peroxide (H202, 100 μM) with iron II ([…]). FeSO2.7H2O (5 mM stock, 200 μL) was diluted in PBS (690 μL) and H2O2 (10 mM stock, 10 μL) was added, followed by the ^18F-labelled compound in 100 μL ethanol. • Iron (II) sulfate heptahydrate (Fe^2+) (control): FeSO2.7H2O (5 mM stock, 200 μL) was diluted to a final concentration of 1000 μM in PBS (700 μL), and the ^18F-labelled compound in 100 μL ethanol was added after. • tert-butyl hydroperoxide (TBHP): TBHP (10 mM stock, 10 μL) was diluted in PBS (890 μL) followed by addition of the ^18F-labelled compound in ethanol, to a final concentration of 100 μM. • Tert-butoxy radical (t-BuO⋅): t-butoxy radicals were generated in situ by reacting tert-butyl hydroperoxide (TBHP, 100 μM) with Fe^2+ (1000 μM). FeSO2.7H2O (5 mM stock, 200 μL) was diluted in PBS (690 μL) and TBHP (10 mM stock, 1 μL) was added, followed by the ^18F-labelled compound in ethanol. • Peroxynitrite (ONOO^−): peroxynitrite was generated in situ by spontaneous decomposition of 3-morpholinosydnomine (SIN-1) in solution. SIN-1 (5 mM stock, 1 μL) was diluted in PBS (989 μL) containing the ^18F-labelled compound in ethanol (10 μL), to give a final concentration of 50 μM ONOO^− in solution. • Nitric oxide (NO): NO was generated in situ by the NO-donor drug diethylamine NONOate (DEA/NO). A 33 mM stock solution of DEA/NO in 10 mM NaOH was used. 1 μL was diluted in PBS (990 μL) containing the ^18F-labelled compound in ethanol (10 μL), to give a final concentration of 33 μM DEA/NO in solution. The reaction was allowed to take place for 32 min at room temperature (˜20° C.) to allow DEA/NO to decompose into diethylamine and nitric oxide radical (NO) at a concentration of 50 μM, before HPLC analysis.

[6] = Chemoselectivity study: oxidation by other ROS, radioHPLC; settings: in vitro; for reactivity to other biologically relevant ROS: qualitative
Description: as §3, with “SIN-1 (5 mM stock, 1 μL) was diluted in PBS (989 μL) containing the ^18F-labelled compound in ethanol (10 μL), to give a final concentration of 50 μM ONOO^− in solution. • Nitric oxide (NO): NO was generated in situ by the NO-donor drug diethylamine NONOate (DEA/NO). A 33 mM stock solution of DEA/NO in 10 mM NaOH was used. 1 μL was diluted in PBS (990 μL) containing the ^18F-labelled compound in ethanol (10 μL), to give a final concentration of 33 μM DEA/NO in solution. The reaction was allowed to take place for 32 min at room temperature (˜20° C.) to allow DEA/NO to decompose into diethylamine and nitric oxide radical (NO) at a concentration of 50 μM, before HPLC analysis.” left out

[7] = PET imaging study in healthy C57BL/6J mice; type: in vivo
Description: Wild type C57BL/6J mice (male, 26±2 g) were injected intravenously via the tail vein with [^18F]FM074 (1.2±1.1 MBq) in PBS containing sodium ascorbate (0.01 mg/mL). The animals were sacrificed either 3 min post-injection or after a 60 min PET (n=3/group). Organs and tissues of interest were harvested, weighed and the radioactivity measured in a gamma counter. Organ uptake was calculated as percentage injected dose per gram of tissue mass (% ID/g). Data are reported as mean±SD.
The radiotracer is excreted by both renal and hepatobilliary routes in less than 1 hour (FIG. 5).

[8] = tested on: oxidative stress in heart (left ventricle); assay: PET/CT imaging in rat model of Doxorubicin-induced cardiotoxicity; type: in vivo, rats
Description: Wistar rats were randomly divided into two groups and were subjected to the implantation of an Alzet Osmotic minipump containing either Doxorubicin (30 mg/kg) in saline (n=6) or saline only (n=4) as control. The minipump releases the drug at a constant rate over seven days, after which PET/CT imaging was performed.
as §1
Doxorubicin (30 mg/kg) or only vehicle (saline) was delivered to the animals using the osmotic minipump for seven days, after which PET/CT imaging was performed.
Animals were placed in a warm box at 37° C. before being transferred to an anaesthesia induction box under an 02 flow rate of 1 L/min with isofluorane levels of 5%. The anaesthetised rats were transferred to the PET bed and kept under anaesthesia with an O2 flow rate of 1 L/min with isofluorane levels of 2.5%. The radiotracer (0.5-2.2 MBq, 200-600 μL in maximum 5% EtOH in PBS) was injected intravenously via a cannula inserted into a tail vein. The injection start time coincided with the start of the PET acquisition in order to obtain dynamic tracer uptake information. The PET scans were acquired for 30 min, followed by a CT scan, after which the animals were sacrificed and organs harvested as for the biodistribution protocol. The PET data was analysed using VivoQuant.
Subsequently, both groups were subjected to 30 min PET/CT scans with chest cavity in the field of view on day 7 of the treatment. (FIG. 8) The PET images were analysed into three segments: from 0 to 3 min, 3 to 10 min, and 10 to 30 min post-injection of ^18F-FM074.

[9] = LogD measurement, shake-flask partition between 1-octanol and PBS; type: physicochemical; settings: 1-octanol / PBS pH 7.4
Description: The lipophilicity of ^18F-FM074 and ^18F-FM074-Ox was determined by measuring their logD values using a variation of the conventional shake-flask method, namely a conventional partition method between 1-octanol and phosphate buffered saline (PBS), pH 7.4. The 1-octanol was saturated with PBS before use. The radiotracer (1 μL) in ethanol was added to a mixture of PBS (200 μL) and 1-octanol (200 μL) in a 1.5 mL Eppendorf vial (n =6). The vial was sealed and shaken, then centrifuged at 3000 g for 10 min. A 100 μL aliquot from each layer was drawn was added to separate tubes. The radioactivity content of each fraction was measured in a gamma counter. The LogDoct/PBS as calculated as follows: log [(cpm in the 1-octanol layer-cpm 1-octanol blank)/(cpm in the PBS layer-cpm pbs blank)].

[10] = Biodistribution in healthy Wistar rats; type: in vivo; settings: for uptake by major organs (brain, heart, lung, spleen): i.v., 1, 5 and 30 min post-injection
Description: Male Wistar rats (290-355 g) were placed in a warm box at 37° C. before being transferred to an anaesthesia induction box under an O2 flow rate of 1 L/min with isofluorane levels of 5%. The anaesthetised rat was transferred to an anaesthesia mask with an O2 flow rate of 1 L/min with isofluorane levels of 2.5%. The radiotracer (0.5-2.2 MBq, 200-600 μL in maximum 5% EtOH in PBS) was injected intravenously via a cannula inserted into a tail vein. The animals were sacrificed by cervical dislocation at 1, 5, and 30 min post-injection (n=3/group). The heart was immediately removed and rinsed with saline to washout the blood. Organs of interest as well as blood and urine were collected and the radioactivity measured in a gamma counter.

[11] = healthy C57BL/6 mice, i.v., PET

reduction of left ventricle ejection fraction vs baseline ([1]; 30 mg/kg via 7-day osmotic minipump, day 6 compared to day 0): 15% | left ventricle ejection fraction, Doxorubicin treated vs control groups ([1]; ultrasound, FIG. 7): no significant difference
SMILES: COc1cccc2c1C(=O)c1c(O)c3c(c(O)c1C2=O)C[C@@](O)(C(=O)CO)C[C@@H]3O[C@H]1C[C@H](N)[C@H](O)[C@H](C)O1 [Doxorubicin]

intact tracer in rat serum [2]: 90% | stability in 1% ethanol in PBS ([3]; 1% ethanol in PBS in the presence of ascorbic acid (0.01 mg/mL), for 4 h, HPLC): stable | stability in pure ethanol ([3]; pure ethanol, for 4 h (not tested for longer), HPLC): stable | oxidised tracer observed in radioHPLC chromatogram [4]: 53% | non-specific background retention ([7]; healthy C57BL/6 mice, heart and brain, PET): no non-specific background retention | blood clearance [7, 11]: fast blood clearance | time to excretion by renal and hepatobilliary routes [7, 11]: less than 1 hour | tissue penetration [7, 11]: excellent tissue penetration | uptake by heart and brain [7, 11]: rapidly taken up | bone uptake (defluorination in vivo) ([7]; mice, after 1 hour): minimal | logD [9]: 1.00±0.08 | clearance from the blood pool ([10]; 1 min post-injection): fast clearance | time to clearance from major organs ([10]; hepatic and renal metabolism, excreted to small intestine and urine): under 30 min | uptake by major organs (brain, heart, lung, spleen) [10]: rapid initial uptake | uptake in bone and muscle ([10]; within 30 min): little uptake
SMILES: [18F]CCCN1c2ccccc2SC1c1ccccc1 (stereo not drawn) [^18F-FM074, [^18F]3-(3-fluoropropyl)-2-phenyl-2,3-dihydrobenzo[d]thiazole]
oxidation by superoxide [5]: 58±8% | oxidation by superoxide in the presence of ascorbic acid [5]: 31±5% | reactivity to other biologically relevant ROS [6]: little or no reactivity | oxidation by other endogenous ROS ([6]; ⋅OH, H2O2, ⋅NO, ONOO^−): less than 10% | ratio of standard uptake values LV to blood, Doxorubicin-treated vs control rats ([8]; 3-10 min post-injection, day 7 of Doxorubicin 30 mg/kg minipump): significantly (p<0.05) higher | liver uptake ([8]; PET, Doxorubicin model rats, no significant difference between treated and control): high uptake | heart uptake ex vivo after the PET/CT scan, treated vs control ([8]; ex vivo, after 30 min scan): no significant difference | washout rate from the LV, Doxorubicin treated vs control ([8]; time-activity curves, FIG. 10): two-fold slower

logD [9]: −1.00±0.04 | clearance route ([10]; excreted through the urine): quickly cleared by the kidneys | uptake by major organs (brain, heart, lung, spleen) [10]: significantly reduced uptake
SMILES: [18F]CCC[n+]1c(-c2ccccc2)sc2ccccc21.[Cl-] [^18F-FM074-Ox, [^18F]-(3-fluoropropyl)-2-phenylbenzo[d]thiazol-3-ium chloride]

stability in PBS ([3]; PBS, 30 minutes (FIG. 3(B))): stable | logD [9]: 0.83±0.12
SMILES: COc1ccc(C2Sc3ccccc3N2CCC[18F])cc1 (stereo not drawn) [^18F-FM108, [^18F]3-(3-fluoropropyl)-2-(4-methoxyphenyl)-2,3-dihydrobenzo[d]thiazole]
oxidation by superoxide [5]: 54±4% | oxidation by superoxide in the presence of ascorbic acid [5]: 38% | reactivity to other biologically relevant ROS [6]: little or no reactivity
